Results on 4 molecules are retold here after publication PMC4440778, “Structure-Activity Relationship and Mode of Action of a Frog Secreted Antibacterial Peptide B1CTcu5 Using Synthetically and Modularly Modified or Deleted (SMMD) Peptides” (PLoS ONE, 2015).

≈ marks a conversion by molar mass, not a printed value. Where a SMILES comes first, the peptide text is derived from it. Bridges are numbered along the chain shown (N, C = ends).

Data set [1] has as its system V. cholerae (clinical isolates). The conditions noted are these: 24 h.
Method: (§2) Bacterial cultures were grown in Luria Bertani broth (Hi-media) by overnight incubation at 37°C with constant shaking. Microbial cultures having 10^6 CFU/ml were made from OD 0.6 culture. Respective peptide stock concentration (1mg/ml) were prepared in sterile water and diluted in LB broth to make concentrations ranging from 1–200 μg/ml. Bacterial culture (50 μl) was treated with 50 μl of individual peptide amide solution of various concentrations and incubated for 24 h at 37°C with constant shaking in a 96 well microtitre plate. […] The minimum inhibitory concentration (MIC) was taken as the dose at which 100% of growth inhibition was observed and was calculated from the graph. MIC was calculated from independent experiments performed in triplicate.
The subject of the next data set is PBMCs. The class given is cell-based, human. As for the experimental part: Peripheral blood mononuclear cells (PBMCs) were isolated from heparanised blood of healthy individuals. Five milliliter of blood was diluted with PBS (pH 7.4), and layered above 5 ml of histopaque and centrifuged at 1200 rpm for 30 min at room temperature. The upper layer was discarded, and the interphase containing PBMCs were carefully withdrawn and washed with PBS. It was centrifuged at 1500 rpm at room temperature for 10 min, the pellets were resuspended in RPMI medium and the cells were counted.
(§1) Cytotoxicity of the peptides against human embryonic kidney (HEK) cells, skin cancer cells (A431) and PBMCs were evaluated by 3-[4, 5-dimethylthiazol-2-yl]-2, 5-diphenyl tetrazolium bromide (MTT) assay. Peptide solution prepared in less than 0.2% DMSO (10–100 μg/ml) was treated with initially seeded 10,000 cells per well for HEK and A431 cells. To assess peptide cytotoxicity in PBMCs, MTT assay was performed by adding different concentrations of the respective peptides to 96 well plate containing 40,000 PBMCs per well, in triplicate. The conversion of MTT into […] was determined by measuring the absorbance at 570 nm.

In the next data set the test system is P. aeruginosa ATCC 27853. The note with it: ATCC 27853, 24 h.
The subject of another data set is skin cancer cells (A431). The class given is cell-based, human. Here is the method: as §1
The test system of data set [2] is human embryonic kidney (HEK) cells. The class given is cell-based. Here is the method: as §1
In a further data set the test system is B. subtilis MTCC 14416. The conditions noted are these: MTCC 14416, 24 h.
The test system of another data set is S. aureus ATCC 9542. The conditions noted are these: ATCC 9542, 24 h.
In another data set the test system is B. coagulans ATCC 7050. The conditions noted are these: ATCC 7050, 24 h.
The subject of another data set is E. coli MG 1655. The conditions noted are these: MG 1655, 24 h.

Method for B. coagulans ATCC 7050: as §2
Method for B. subtilis MTCC 14416: as §2
Method for E. coli MG 1655: as §2
Method for P. aeruginosa ATCC 27853: as §2
Method for S. aureus ATCC 9542: as §2

By MIC is commonly meant the smallest concentration in the dilution series that meets the test's criterion for growth inhibition. A high value points to a less susceptible organism. As to `CC[C@H](C)[C@@H]1NC(=O)[C@H](CCCCN)NC(=O)[C@@H](NC(=O)[C@H](CC(C)C)NC(=O)[C@@H](NC(=O)[C@H](CCC(N)=O)NC(=O)[C@@H]2CCCN2C(=O)[C@H](CC(C)C)NC(=O)[C@H](Cc2ccccc2)NC(=O)[C@H](CC(N)=O)NC(=O)[C@H](C)NC(=O)[C@H](C)NC(=O)[C@H](CC(C)C)NC(=O)CNC(=O)[C@H](C)NC(=O)[C@@H](NC(=O)[C@@H](N)CCCCN)[C@@H](C)CC)[C@@H](C)CC)CSSC[C@@H](C(N)=O)NC(=O)[C@H](CCCCN)NC(=O)[C@H](CCCNC(=N)N)NC(=O)[C@H](C)NC1=O` [B1CTcu5K] (H-KIAGLAANFLPQILCKIARKC-NH2; disulfide 15-21), the minimal inhibitory concentration (MIC) was 25 µg/mL (≈ 11 µM) in [1]; greater than 100 µg/mL against P. aeruginosa ATCC 27853; 100 µg/mL (≈ 44.1 µM) against B. subtilis MTCC 14416; 12.5 µg/mL (≈ 5.51 µM) against S. aureus ATCC 9542; 12.5 µg/mL (≈ 5.51 µM) in the data set on B. coagulans ATCC 7050; 25 µg/mL (≈ 11 µM) with E. coli MG 1655. In addition, the “CC 50” value (in the data set with PBMCs; in the data set on skin cancer cells (A431); in data set [2]) was greater than 100 µg/mL throughout.
On to `CC[C@H](C)[C@@H]1NC(=O)[C@H](CCCCN)NC(=O)[C@@H](NC(=O)[C@H](CC(C)C)NC(=O)[C@@H](NC(=O)[C@H](CCC(N)=O)NC(=O)[C@@H]2CCCN2C(=O)[C@H](CC(C)C)NC(=O)[C@H](Cc2ccccc2)NC(=O)[C@H](CC(N)=O)NC(=O)[C@H](C)NC(=O)[C@H](C)NC(=O)[C@H](CC(C)C)NC(=O)CNC(=O)[C@H](C)NC(=O)[C@@H](NC(=O)[C@@H](N)CCCNC(=N)N)[C@@H](C)CC)[C@@H](C)CC)CSSC[C@@H](C(N)=O)NC(=O)[C@H](CCCCN)NC(=O)[C@H](CCCNC(=N)N)NC(=O)[C@H](C)NC1=O` [B1CTcu5R] (H-RIAGLAANFLPQILCKIARKC-NH2; disulfide 15-21), for which the MIC in data set [1] was 12.5 µg/mL (≈ 5.44 µM); in the data set with P. aeruginosa ATCC 27853 it was greater than 100 µg/mL; with B. subtilis MTCC 14416, 50 µg/mL (≈ 21.8 µM); against S. aureus ATCC 9542 it was 25 µg/mL (≈ 10.9 µM); against B. coagulans ATCC 7050 it was 12.5 µg/mL (≈ 5.44 µM); in the data set on E. coli MG 1655, 25 µg/mL (≈ 10.9 µM). Further, the results for the “CC 50” value (with PBMCs; with skin cancer cells (A431); in data set [2]) were 96.1 ± 1.22 µg/mL (≈ 41.8 µM), greater than 100 µg/mL and greater than 100 µg/mL, respectively.
In the case of `CC[C@H](C)[C@@H]1NC(=O)[C@H](CCCCN)NC(=O)[C@@H](NC(=O)[C@H](CC(C)C)NC(=O)[C@@H](NC(=O)[C@H](CCC(N)=O)NC(=O)[C@@H]2CCCN2C(=O)[C@H](CC(C)C)NC(=O)[C@H](Cc2ccccc2)NC(=O)[C@H](CC(N)=O)NC(=O)[C@H](C)NC(=O)[C@H](C)NC(=O)[C@H](CC(C)C)NC(=O)CNC(=O)[C@H](C)NC(=O)[C@@H](NC(=O)[C@@H](N)Cc2c[nH]c3ccccc23)[C@@H](C)CC)[C@@H](C)CC)CSSC[C@@H](C(N)=O)NC(=O)[C@H](CCCCN)NC(=O)[C@H](CCCNC(=N)N)NC(=O)[C@H](C)NC1=O` [B1CTcu5W] (H-WIAGLAANFLPQILCKIARKC-NH2; disulfide 15-21), the MIC in data set [1] was 25 µg/mL (≈ 10.7 µM); against P. aeruginosa ATCC 27853, greater than 100 µg/mL; in the data set with B. subtilis MTCC 14416, 50 µg/mL (≈ 21.5 µM); in the data set on S. aureus ATCC 9542 it was 12.5 µg/mL (≈ 5.37 µM); in the data set with B. coagulans ATCC 7050, 12.5 µg/mL (≈ 5.37 µM); in the data set with E. coli MG 1655, 100 µg/mL (≈ 43 µM). In addition, the results for the “CC 50” value (in the data set with PBMCs; in the data set on skin cancer cells (A431); in data set [2]) were 74.5 ± 2.44 µg/mL (≈ 32 µM), greater than 100 µg/mL and greater than 100 µg/mL, respectively.
As for `CC[C@H](C)[C@@H]1NC(=O)[C@H](CCCCN)NC(=O)[C@@H](NC(=O)[C@H](CC(C)C)NC(=O)[C@@H](NC(=O)[C@H](CCC(N)=O)NC(=O)[C@@H]2CCCN2C(=O)[C@H](CC(C)C)NC(=O)[C@H](Cc2ccccc2)NC(=O)[C@H](CC(N)=O)NC(=O)[C@H](C)NC(=O)[C@H](C)NC(=O)[C@H](CC(C)C)NC(=O)CNC(=O)[C@H](C)NC(=O)[C@@H](NC(=O)[C@@H](N)CC(C)C)[C@@H](C)CC)[C@@H](C)CC)CSSC[C@@H](C(N)=O)NC(=O)[C@H](CCCCN)NC(=O)[C@H](CCCNC(=N)N)NC(=O)[C@H](C)NC1=O` [Cyclic B1CTcu5] (H-LIAGLAANFLPQILCKIARKC-NH2; disulfide 15-21), the MIC in [1] was 25 µg/mL (≈ 11.1 µM); in the data set with P. aeruginosa ATCC 27853, greater than 100 µg/mL; in the data set with B. subtilis MTCC 14416, 50 µg/mL (≈ 22.2 µM); in the data set on S. aureus ATCC 9542, greater than 100 µg/mL; in the data set on B. coagulans ATCC 7050, 15 µg/mL (≈ 6.66 µM); in the data set with E. coli MG 1655 it was 25 µg/mL (≈ 11.1 µM). Moreover, the entries for the “CC 50” value (with PBMCs; with skin cancer cells (A431); in data set [2]) were 75.1 ± 1.46 µg/mL (≈ 33.3 µM), greater than 100 µg/mL and greater than 100 µg/mL, respectively.
